# Laboratory results from US20060270656A1, “Substituted piperazines of azepines, oxazepines and thiazepines” (ELI LILLY AND COMPANY, priority 2003, published 2006).
# Counter-ions that a name gives are not always drawn.
row,SMILES,melting point
1,CC(=O)c1nc2c(s1)Sc1ccccc1N=C2N1CCN(C)[C@@H](CCc2cccc(F)c2)C1.Cl.Cl,130 to 132 °C
2,c1ccc(C[C@H]2CN(C3=Nc4ccccc4Sc4ccccc43)CCN2)cc1,54 to 71 °C
3,CN1CCN(C2=Nc3ccccc3Sc3ccccc32)C[C@H]1Cc1ccccc1,46 to 63 °C
4,CN1CCN(C2=Nc3ccccc3Sc3ccccc32)C[C@@H]1CCc1ccccc1,44 to 54 °C
5,c1ccc(CC[C@H]2CN(C3=Nc4ccccc4Sc4ccccc43)CCN2)cc1,48 to 59 °C
6,c1ccc(C[C@@H]2CN(C3=Nc4ccccc4Sc4ccccc43)CCN2)cc1,56 to 69 °C
7,COCC[C@H]1CN(C2=Nc3ccccc3Sc3sc(C(C)C)cc32)CCN1.Cl.Cl,149 to 152 °C (dec.)
8,CN1CCN(C2=Nc3ccccc3Sc3ccccc32)C[C@@H]1Cc1ccccc1,48 to 64 °C

# Further lines, results first:
row,melting point,SMILES
1,181 to 187 °C,CCc1cc2c(s1)Sc1ccccc1N=C2N1CCN(C)[C@@H](CCOC)C1.Cl.Cl
2,184 to 186 °C,COCC[C@H]1CN(C2=Nc3ccccc3Sc3scnc32)CCN1 (as salt: hydrochloride)
3,146 to 148 °C,COCC[C@H]1CN(C2=Nc3ccccc3Sc3scnc32)CCN1C (as salt: hydrochloride)
4,138 to 140 °C,COCC[C@H]1CN(C2=Nc3ccccc3Sc3sc(C(C)=O)nc32)CCN1C.Cl.Cl
5,143 to 147 °C (dec.),COCC[C@H]1CN(C2=Nc3ccccc3Sc3sc(C(C)C)cc32)CCN1C.Cl.Cl
6,133 to 135 °C,CCc1nc2c(s1)Sc1ccccc1N=C2N1CCN(C)[C@@H](CCc2cccc(F)c2)C1.Cl
7,129 to 130 °C,CCc1nc2c(s1)Sc1ccccc1N=C2N1CCN(C)[C@@H](CCc2ccc(OC)cc2)C1.Cl
